The values below come from PMC8773213, “In Vitro Anticancer Activity and Mechanism of Action of an Aziridinyl Galactopyranoside” (Biomedicines, 2021).

Data set [1] has as its system BJ-hTERT (hTERT-immortalized skin non-malignant BJ cells). Kind of data set: Resazurin cell viability assay, BJ-hTERT. In kind it is cell-based. The note with it: Homo sapiens, 72 h, read-out: IC50 (Mean ± SEM, µM), BJ-hTERT. On the procedure:
(§1) Exponentially growing cells were seeded in 96-well plates and allowed to attach and grow for 24 h. The cells were then treated with increasing concentrations of the tested drugs. At the end of the treatment period, cell viability was measured with the MTT assay or the resazurin assay, two widely used techniques.
(§2) The resazurin assay is a redox-based colorimetric/fluorometric technique based on the ability of viable cells to reduce the blue compound resazurin into the pink, fluorescent and soluble product resorufin. The amount of resorufin produced is generally proportional to the number of living cells. In this assay, 24 h after seeding, cells were exposed to the tested drugs for 72 h. Then 100 μL resazurin in medium was added to each well (final concentration of 10 μg/mL) and, one hour later the fluorescence intensity was measured at 530/590 nm (excitation/emission) using a fluorescence microplate reader.
(§3) In both assays, cell viability was expressed as percentage compared to untreated cells. Results were expressed as the means ± standard error of the mean (SEM). All data are from at least three independent experiments.
(The colour change of resazurin is a common sign of viable cells or microbes.)

Data set [2] concerns UV4 cells (mutated in ERCC1, NER deficient). Kind of data set: MTT cell viability assay, UV4 cells. In kind it is cell-based, Chinese hamster. As to the method: as §1
(§4) In the case of the MTT assay, this technique detects viable cells using the ability of these cells to reduce the yellow tetrazolium MTT to an insoluble colored formazan product. Subsequently, this product was solubilized and analyzed by spectrophotometry. Dead cells cannot reduce the MTT into the colored formazan product. Briefly, 24 h after plating, cells were treated with the tested compounds for 48 h; except in experiments with DNA repair-proficient and -deficient cell lines, in which cells were only exposed for 24 h to drugs and allowed to grow for an additional 48 h in drug-free medium to allow them to repair possible DNA damage induced by the tested drugs. […] Finally, plates were incubated overnight at 37 °C and optical densities were measured at 540 nm using an absorbance spectrophotometer microplate reader.
(§5) In both assays, cell viability was expressed as percentage compared to untreated cells. Results were expressed as the means ± standard error of the mean (SEM). […]
Background: Tetrazolium dyes change colour on reduction, which living cells bring about.

Data set [3] has as its system SW480 (Human colon adenocarcinoma cells). Kind of data set: Resazurin cell viability assay, SW480. In kind it is cell-based. The note with it: 72 h, read-out: IC50 (Mean ± SEM, µM), SW480. As to the method: as §1, §2, §3
In data set [4] the test system is AA8 cells (NER proficient). Put plainly: MTT cell viability assay, AA8 cells. In kind it is cell-based, Chinese hamster. Particulars: then 48 h in drug-free medium, read-out: IC50 (mean ± SEM), AA8 cells. As to the method: as §1, §4, §5
Data set [5] relates to BJ-RASV12 (HRASV12-transformed BJ-SV40T cells). Kind of data set: Resazurin cell viability assay, BJ-RASV12. The note with it: 72 h. In kind it is cell-based, human. As to the method:
as §1, §2, §3

Data set [6] relates to VH10 (Human skin non-malignant cells). Put plainly: Resazurin cell viability assay, VH10. In kind it is cell-based. Particulars: 72 h, read-out: IC50 (Mean ± SEM, µM), VH10. As to the method:
as §1, §2, §3

The test system of data set [7] is PC3 (Human prostate cancer cells). Put plainly: Resazurin cell viability assay, PC3. In kind it is cell-based. The note with it: 72 h, read-out: IC50 (Mean ± SEM, µM), PC3. As to the method: as §1, §2, §3
In another data set the test system is AA8 cells. Kind of data set: Comet assay (DNA damage). In kind it is cell-based, Chinese hamster. The note with it: 4 h. An excerpt: The single cell gel electrophoresis assay, also known as comet assay, is a widely used technique for the study of levels of damage in cellular DNA. In this assay, individual cells embedded in agarose are lysed, electrophoresed, stained with a fluorescent dye and examined under an epifluorescence microscope. […] The quantity of DNA present in the tail is indicative of DNA damage. This assay has been described in detail by Singh et al.. We followed this protocol with minor modifications previously described. Briefly, standard slides were immersed in 1% normal melting agarose at 55 °C, left to allow the agarose to solidify and kept at 4 °C until use. Cells were seeded in 6-well plates, allowed to grow for 24 h and then cells were exposed to AzGalp or CTP (positive control) for 4 h. At the end of the treatment, cells were harvested by trypsinization, washed with PBS and resuspended in PBS at a concentration of approximately 1 million cells/mL; 10 µL cell suspension was mixed with 85 μL of low-melting agarose (LMA) at 37 °C and the mixture was quickly added to the slides with the first layer of agarose, spread using a coverslip and kept at 4 °C for 8 min to allow the LMA to solidify. The coverslips were then removed and another layer of 100 μL of LMA at 37 °C was added, covered with a coverslip and allowed to solidify at 4 °C for 8 min. After removing the coverslips, the slides were incubated in the dark for 1 h at 4 °C in a lysis buffer (pH 10.0) containing 0.25 M NaOH, 10% DMSO, 1% Triton X-100, 10 mM Tris-HCl, 100 mM Na2-EDTA and 2.5 M NaCl. Next, alkaline denaturation with electrophoretic buffer (300 mM NaOH and 1 mM Na2-EDTA) was carried out in an electrophoresis chamber for 20 min and then electrophoresis was performed at 1 V/cm for 20 min. […] DNA damage levels were quantified for each cell and expressed as percent of DNA in the tail and as the tail moment (defined as the product of the tail length and the fraction of total DNA in the tail). The results were averaged from two independent experiments and expressed as mean ± SEM.

Another data set has as its system A549 cells. In kind it is cell-based. The note with it: A549, 48 h, antioxidant added 1 h before; MTT. As to the method: as §1
In the case of the MTT assay, this technique detects viable cells using the ability of these cells to reduce the yellow tetrazolium MTT to an insoluble colored formazan product. Subsequently, this product was solubilized and analyzed by spectrophotometry. Dead cells cannot reduce the MTT into the colored formazan product. Briefly, 24 h after plating, cells were treated with the tested compounds for 48 h; except in experiments with DNA repair-proficient and -deficient cell lines, in which cells were only exposed for 24 h to drugs and allowed to grow for an additional 48 h in drug-free medium to allow them to repair possible DNA damage induced by the tested drugs. After the treatment period, the medium was removed, the cells were washed once with PBS and 125 μL MTT (1 mg/mL in medium) was added to each well. Plates were incubated for 2–4 h and then 80 μL 20% SDS in 0.02 M HCl was added to each well. Finally, plates were incubated overnight at 37 °C and optical densities were measured at 540 nm using an absorbance spectrophotometer microplate reader.
as §3

The subject of data set [8] is A549 human lung cancer cell line and MRC-5 human lung normal cell line. More on the design: method as in PMID 24177365. Particulars: MTT assay; cited from earlier work.
In data set [9] the test system is HeLa (Human cervical carcinoma cells). Kind of data set: Resazurin cell viability assay, HeLa. The note with it: 72 h, read-out: IC50 (Mean ± SEM, µM), HeLa. In kind it is cell-based. As to the method: as §1, §2, §3
Data set [10] has as its system BJ-SV40T (SV40T-transformed BJ-hTERT cells). Kind of data set: Resazurin cell viability assay, BJ-SV40T. In kind it is cell-based. Particulars: Homo sapiens, 72 h, read-out: IC50 (Mean ± SEM, µM), BJ-SV40T. As to the method: as §1, §2, §3

Read-outs that look alike come from different tables or passages of the source.

As for `Cc1ccc(S(=O)(=O)N2CC2(C)CO[C@@H]2O[C@@H]3CO[C@H](c4ccccc4)O[C@@H]3[C@H](OCc3ccccc3)[C@H]2OCc2ccccc2)cc1` (stereo partly drawn) [AzGalp, 2-methyl-2,3-[N-(4-methylbenzenesulfonyl)imino]propyl 2,3-di-O-benzyl-4,6-O-(S)-benzylidene-β-D-galactopyranoside], the IC50 in data set [1] is 209 ± 24.2 µM; in data set [2] (Cricetulus griseus, UV4, 24 h exposure, then 48 h in drug-free medium, read-out: IC50 (means ± SEM), UV4 cells), 58.6 ± 9.3 µM; in data set [3] it was 388 ± 30.9 µM; in data set [4] (24 h exposure) it was 319 ± 77.2 µM; in [4] (Cricetulus griseus, CHO-AA8, 24 h exposure) it was 397 ± 142 µM; in data set [5] (Homo sapiens, resazurin assay, read-out: IC50 (Mean ± SEM, µM), BJ-RASV12), 76.3 ± 17.8 µM. Besides, the IC50 in data set [6] worked out at 411 ± 39.4 µM; in data set [7] it was 401 ± 14.8 µM; in data set [9], 191 ± 35.8 µM; in data set [10], 143 ± 8.1 µM. For the same compound, the “Sensitivity of NER-deficient cells relative to NER-proficient cells” value in data set [2] (UV4 and UV5 versus AA8) is recorded as “approximately six times more sensitive”. Further, in data set [5] (resazurin), the “Sensitivity of BJ-RASV12 malignant cells relative to BJ-hTERT non-malignant cells” value is given as “three times more sensitive”. Also, in the data set with AA8 cells (50 µM AzGalp versus 10 µM CPT), the “Level of DNA damage in comet assay” value is listed as “lower than that of the DNA-damaging agent CPT”. Besides, the “Cells with higher levels of DNA damage than untreated cells” value in the data set with AA8 cells (50 µM) was “approximately 30%”. In addition, the “Effect of MnTMPyP on cytotoxicity” value with A549 cells is “Neither MnTMPyP nor catalase prevented the cytotoxicity”. In the data set on A549 cells, the “Effect of NAC on cytotoxicity” value is listed as “slightly prevented cytotoxic activity, it was not statistically significant”. Besides, the “Effect of catalase on cytotoxicity” value in the data set with A549 cells was “Neither MnTMPyP nor catalase prevented the cytotoxicity”. Moreover, in data set [8], the “Cytotoxicity against A549 lung cancer cells relative to MRC-5 lung normal cells” value is recorded as “approximately six times more cytotoxic”.

What is called IC50 is the concentration that gives 50% inhibition.
